System: plaque biofilm grown from fresh pooled human saliva
Assay: in vitro plaque glycolysis model (iPGRM): acid production and glycolysis inhibition after treatment of 3-day biofilm
Type: cell-based, plaque microorganisms from human saliva
Procedure: Acid production and acid inhibition were determined with the in vitro plaque glycolysis model (iPGRM). The purpose of this technique is to provide a simple and quick method for determining if compounds have an influence on the metabolic pathways that plaque microorganisms utilize to produce toxins that adversely affect gingival health.
The in vitro plaque glycolysis model (iPGRM) is a technique in which plaque is grown from human saliva and treated with various agents to determine anti-glycolytic activity of treatments. When bacteria convert sugar into energy with the help of enzymes, acids are formed. These acids demineralize and damage the dental enamel. The purpose of this technique is to provide a simple and quick method for determining if treatment compounds have an inhibitory effect on the metabolic pathways that plaque microorganisms utilize for the production of acids or toxins and/or inhibit their growth. […]
[…] The pH of the media solutions was then measured to determine the amount of glycolysis inhibition relative to a negative control.
On Day 1, new glass rods (5 mm×90 mm) were polished approximately 25 mm from the un-tapered end on a lathe with silicon carbide paper of 240, 320, 400, and 600 grit used sequentially. […] After polishing, rods were stored until ready to run test. […]

With `[H]/N=C(\N/C(=N/[H])NCCCCCCNC(=N)NC(=N)Nc1ccc(Cl)cc1)Nc1ccc(Cl)cc1` [1% Chlorhexidine, Chlorhexidine] as the compound, how does the “Mean Acid Inhibition (%) Mean” value (2 min treatment (1:5 in water), glycolysis inhibition relative to negative control (Crest Cavity Protection)) read?
Its value is 75.12%.

What about the “Acid Production (ΔpH) Mean” value (2 min treatment with dentifrice slurry or diluted treatment in water (1:5), ΔpH versus blank vials) of the same compound?
The value was 0.4 ΔpH.

— patent US20210093551A1, “Methods Of Use Of Oral Care Compositions Comprising Hops” (The Procter & Gamble Company, priority 2019, published 2021)
